“And” between values parts separate entries of the source, which are not always exact repeats. Identical values can stand only once. Blank lines part the entries; values can stand above or below the compound they belong to. Non-standard residues stand in square brackets, D forms with d. Residues, ends and D or L forms follow the SMILES beside them. *: point of attachment. Orn(α-tetramethylguanidino) = CN(C)C(=N[C@@H](CCCN)C(=O)*)N(C)C
Tests used:
[1] = 25% aqueous commercial serum; settings: cited from earlier work
[2] = “direct serum” (DS): blood in polypropylene tubes centrifuged immediately; settings: CD-1 mice, 37°C, up to 60 min
[3] = “activated serum” (AS): serum separator tubes incubated (room temperature, 1 h), centrifuged; settings: CD-1 mice, 37°C, up to 60 min
[4] = Pooled mouse serum (PAA Laboratories), commercial serum (CS); settings: 37°C, up to 60 min
[5] = pooled CD-1 mouse plasma containing lithium heparin (heparin plasma, HP); settings: 37°C, up to 60 min
[6] = pooled CD-1 mouse plasma containing K2EDTA (EDTA plasma, EP); settings: 37°C, up to 60 min
[7] = blood collected via cardiac puncture into a syringe containing the peptide solution (“blood”, B); settings: CD-1 mice, 37°C, up to 60 min
[8] = Peptide stability in EDTA plasma (EP); format: in vitro ADME, CD-1 mouse
Procedure: (§1) All stability tests were performed at least in triplicates.

[9] = Peptide stability in commercial serum (CS); format: in vitro ADME, mouse
Procedure: as §1

[10] = Peptide stability in direct serum (DS); format: in vitro ADME, CD-1 mice
Procedure: as §1

[11] = Peptide stability in fresh blood taken by cardiac puncture into a syringe containing the peptide (blood, B); format: in vitro ADME, CD-1 mice
Procedure: as §1

[12] = Stability and metabolites across fresh blood, serum and plasma (all six matrices); settings: fresh blood, serum, and plasma
Procedure: Aqueous peptide solutions (3 g/L) were filled in a sterile syringe (1 mL, Dispomed Witt oHG, Gelnhausen, Deutschland) through the front end, the stainless-steel needle was attached, and blood (200 to 300 μL) was collected via cardiac puncture to obtain a peptide concentration of approximately 31,5 μmol/L. The syringe was carefully disconnected from the needle and sealed while keeping the needle in the heart. A second empty syringe was attached to the needle and 0.5 to 0.8 mL blood were collected. In parallel, the sealed syringe was gently shaken for one minute to mix the peptide solution with blood and further incubated on a Stuart Rotator SB3 (Barloworld, Scientific LTD, Stone, Staffordshire, U.K.) placed in an incubator at 37°C. […] The plasma sample designated as “blood” (B) was precipitated with trichloroacetic acid (TCA), as described below. Blood collected in the second syringe was transferred to a polypropylene tube (Eppendorf AG, Hamburg, Germany) and a BD Microtainer® serum separator tube (SST; Becton, Dickinson and Company). Polypropylene tubes were centrifuged immediately (12,000 x g, 2 to 4 min) to obtain “direct serum” (DS) as supernatant, whereas the serum separator tubes were incubated (room temperature, 1 h), centrifuged (12,000 x g, 2 min), and collected as “activated serum” (AS). Pooled mouse serum was purchased from PAA Laboratories GmbH (Pasching, Austria) and pooled CD-1 mouse plasma containing K2EDTA or lithium heparin were obtained from Innovative Research (Novi, MI, USA).
Peptides were mixed with serum or plasma to a final concentration of 31.5 μmol/L and incubated (37°C, 750 rpm; Thermomixer, Eppendorf AG, Hamburg, Germany). Aliquots (20 or 40 μL) taken after 0 and 60 min (0, 10 and 30 min for Api88) were mixed with TCA to obtain a final concentration of 3% (w/v) and incubated on ice (10 min). After centrifugation (12,000 x g, 5 min), the supernatant was neutralized with sodium hydroxide (1 mol/L) and stored at −20°C. Samples were analyzed by RP-HPLC on a Jupiter C18-column (internal diameter: 2 mm, length: 150 mm, particle size: 5 μm, pore size: 30 nm) using a linear aqueous acetonitrile gradient containing TFA (0.1%, v/v) as ion pair reagent. Peptides were detected by recording the absorbance at 214 nm and quantified by their peak areas relative to the initial peak areas (0 min). All stability tests were performed at least in triplicates.
Metabolites were identified on an Agilent 1100 LC system (Agilent Technologies, Santa Clara, CA, USA) coupled on-line via a UV-detector (absorbance recorded at 214 nm) to the electrospray ionization source on an ion trap mass spectrometer (ESI-IT-MS, Esquire HCT, Bruker Daltonics GmbH, Bremen, Germany). Samples were separated on an Aqua C18-column (inner diameter: 2 mm, length: 150 mm, particle size: 3 μm, pore size: 12.5 nm, Phenomenex; column temperature: 60°C) at a flow rate of 0.2 mL/min using a linear gradient of aqueous acetonitrile in the presence of formic acid (FA; 0.1%, v/v) as ion pair reagent. […] The ESI-IT-MS was operated in positive ion mode. Ionization was carried out at 365°C (source temperature) using nitrogen as curtain gas (40 psi) and dry gas (9 L/min). Mass spectra were acquired for an m/z range from 400 to 1300 at a scan rate of 8100 m/z-units per second in standard enhanced mode.

[13] = Peptide stability in activated serum (AS); format: in vitro ADME, CD-1 mice
Procedure: as §1

[14] = Peptide stability in heparin plasma (HP); format: in vitro ADME, CD-1 mouse
Procedure: as §1

human α-thrombin [15] = target: T1, human α-thrombin (Homo sapiens, UniProt P00734); experiment: α-Thrombin stability assay; format: in vitro ADME
T1 construct: with human α-Thrombin for 0, 1, and 24 hours
Procedure: Supplementary file pone.0178943.s003.tif: S3 Fig Stability of Api88, Api137, and LVPR-Onc112 against human α-thrombin. Chromatograms recorded after incubation of Api88 (a), Api137 (b), or LVPR-Onc112 (c) with human α-Thrombin for 0, 1, and 24 hours (UV absorbance). […] (TIF) Click here for additional data file.
S1 Text. Method α-Thrombin stability assay.

[16] = in vitro, mouse serum; cited from earlier work
human α-thrombin [17] = experiment: human α-thrombin; settings: up to 24 hours
[18] = parameters: method as in PMID 27067364; settings: 25% aqueous commercial serum; cited from earlier work

Compound: AAYRVDKPPYLPRPRPPRrIYNr-NH2 (H-AAYRVDKPPYLPRPRPPR[dR]IYN[dR]-NH2; SMILES CC[C@H](C)[C@H](NC(=O)[C@@H](CCCNC(=N)N)NC(=O)[C@H](CCCNC(=N)N)NC(=O)[C@@H]1CCCN1C(=O)[C@@H]1CCCN1C(=O)[C@H](CCCNC(=N)N)NC(=O)[C@@H]1CCCN1C(=O)[C@H](CCCNC(=N)N)NC(=O)[C@@H]1CCCN1C(=O)[C@H](CC(C)C)NC(=O)[C@H](Cc1ccc(O)cc1)NC(=O)[C@@H]1CCCN1C(=O)[C@@H]1CCCN1C(=O)[C@H](CCCCN)NC(=O)[C@H](CC(=O)O)NC(=O)[C@@H](NC(=O)[C@H](CCCNC(=N)N)NC(=O)[C@H](Cc1ccc(O)cc1)NC(=O)[C@H](C)NC(=O)[C@H](C)N)C(C)C)C(=O)N[C@@H](Cc1ccc(O)cc1)C(=O)N[C@@H](CC(N)=O)C(=O)N[C@H](CCCNC(=N)N)C(N)=O)
fragment found [1]: Onc112
fragment found [2]: 5–23 [Onc112]; VDKPPYLPRPRPPRrIYNr-NH2
fragment found [3]: 5–23 [Onc112]; VDKPPYLPRPRPPRrIYNr-NH2
fragment found [4]: 5–23 [Onc112]; VDKPPYLPRPRPPRrIYNr-NH2
fragment found [5]: 5–23 [Onc112]; VDKPPYLPRPRPPRrIYNr-NH2
fragment found [6]: 5–23 [Onc112]; VDKPPYLPRPRPPRrIYNr-NH2
fragment found [7]: 5–23 [Onc112]; VDKPPYLPRPRPPRrIYNr-NH2

remaining at 10 min, 31.5 μmol/L ([8]; CD-1, mouse, pooled plasma containing K2EDTA, 37°C, 10 min, read-out: intact peptide remaining relative to time zero): 48 ± 4%
remaining at 0.5 h, 31.5 μmol/L ([8]; CD-1, mouse, pooled plasma containing K2EDTA, 37°C, 30 min, read-out: intact peptide remaining relative to time zero): 5 ± 3%
intact peptide remaining relative to time zero ([9]; commercial serum, 37°C, 30 min): fully degraded
remaining at 10 min, 31.5 μmol/L ([9]; mouse, commercial pooled serum, commercial serum, 37°C, 10 min, read-out: intact peptide remaining relative to time zero): 10 ± 2%
intact peptide remaining relative to time zero ([10]; 37°C, 30 min): fully degraded
remaining at 10 min, 31.5 μmol/L ([10]; CD-1, mouse, direct serum (supernatant of blood centrifuged immediately), 37°C, 10 min, read-out: intact peptide remaining relative to time zero): 11 ± 6%
half-life at 31.5 μmol/L ([11]; CD-1, mouse, fresh whole blood taken by cardiac puncture, indicated by the recovery after 10 min, read-out: half-life time in fresh mouse blood (converted)): ~1 h
remaining at 10 min ([11]; CD-1, mouse, fresh whole blood, blood, 37°C, 10 min, read-out: intact peptide remaining relative to time zero): 88 ± 14%
remaining at 0.5 h ([11]; CD-1, mouse, fresh whole blood, blood, 37°C, 30 min, read-out: intact peptide remaining relative to time zero): 30 ± 14%
half-life time in fresh mouse blood relative to that reported for serum ([11]; blood versus reported serum half-life): 30 fold
intact peptide remaining relative to time zero ([11]; blood, 37°C, 10 min): 88 ± 15%
Overall stability [12]: Low
Sequential stability [12]: Blood > Plasma > Serum
intact peptide remaining relative to time zero ([13]; 37°C, 30 min): fully degraded
remaining at 10 min, 31.5 μmol/L ([13]; CD-1, mouse, 37°C, 10 min, read-out: intact peptide remaining relative to time zero): 22 ± 5%
remaining at 10 min, 31.5 μmol/L ([14]; CD-1, mouse, pooled plasma containing lithium heparin, 37°C, 10 min, read-out: intact peptide remaining relative to time zero): 77 ± 5%
remaining at 0.5 h, 31.5 μmol/L ([14]; CD-1, mouse, pooled plasma containing lithium heparin, 37°C, 30 min, read-out: intact peptide remaining relative to time zero): 36 ± 1%
proteolytic cleavage by human α-thrombin (human α-thrombin [15]; after one hour): completely degraded
Compound: CC[C@H](C)[C@H](NC(=O)[C@H](Cc1ccc(O)cc1)NC(=O)[C@@H](NC(=O)[C@@H]1CCCN1C(=O)[C@H](CCCNC(=N)N)NC(=O)[C@H](CC(N)=O)NC(=O)[C@H](CC(N)=O)NC(=O)[C@H](CCCN)N=C(N(C)C)N(C)C)C(C)C)C(=O)N1CCC[C@H]1C(=O)N[C@@H](CCCNC(=N)N)C(=O)N1CCC[C@H]1C(=O)N[C@@H](CCCNC(=N)N)C(=O)N1CCC[C@H]1C(=O)N1CCC[C@H]1C(=O)N[C@@H](Cc1c[nH]cn1)C(=O)N1CCC[C@H]1C(=O)N[C@@H](CCCNC(=N)N)C(=O)N[C@@H](CC(C)C)C(N)=O [Api88, gu-ONNRPVYIPRPRPPHPRL-NH2] ({Orn(α-tetramethylguanidino)}-NNRPVYIPRPRPPHPRL-NH2)

intact peptide remaining relative to time zero ([8]; 37°C, 1 h, 31.5 μmol/L): ≥ 94%
remaining at 1 h, 31.5 μmol/L ([9]; commercial pooled serum, commercial mouse serum, 37°C, 1 h, 31.5 μmol/L, read-out: intact peptide remaining relative to time zero): 87 ± 9%
intact peptide remaining relative to time zero ([10]; 37°C, 1 h, 31.5 μmol/L): ≥ 94%
Overall stability [12]: High
Sequential stability [12]: Blood = Plasma = Serum
intact peptide remaining relative to time zero ([13]; 37°C, 1 h, 31.5 μmol/L): ≥ 94%
remaining at 1 h, 31.5 μmol/L ([14]; CD-1, mouse, pooled plasma containing lithium heparin, 37°C, 1 h, 31.5 μmol/L, read-out: intact peptide remaining relative to time zero): 83 ± 2%
proteolytic cleavage by human α-thrombin (human α-thrombin [15]; after 24 h): remained mostly intact
Compound: CC[C@H](C)[C@H](NC(=O)[C@H](Cc1ccc(O)cc1)NC(=O)[C@@H](NC(=O)[C@@H]1CCCN1C(=O)[C@H](CCCNC(=N)N)NC(=O)[C@H](CC(N)=O)NC(=O)[C@H](CC(N)=O)NC(=O)[C@H](CCCN)N=C(N(C)C)N(C)C)C(C)C)C(=O)N1CCC[C@H]1C(=O)N[C@@H](CCCNC(=N)N)C(=O)N1CCC[C@H]1C(=O)N[C@@H](CCCNC(=N)N)C(=O)N1CCC[C@H]1C(=O)N1CCC[C@H]1C(=O)N[C@@H](Cc1c[nH]cn1)C(=O)N1CCC[C@H]1C(=O)N[C@@H](CCCNC(=N)N)C(=O)N[C@@H](CC(C)C)C(=O)O [Api137, gu-ONNRPVYIPRPRPPHPRL-OH] ({Orn(α-tetramethylguanidino)}-NNRPVYIPRPRPPHPRL-OH)
half-life time in mouse serum [16]: 6 h

Compound: LVPRVDKPPYLPRPRPPRrIYNr-NH2 (H-LVPRVDKPPYLPRPRPPR[dR]IYN[dR]-NH2; SMILES CC[C@H](C)[C@H](NC(=O)[C@@H](CCCNC(=N)N)NC(=O)[C@H](CCCNC(=N)N)NC(=O)[C@@H]1CCCN1C(=O)[C@@H]1CCCN1C(=O)[C@H](CCCNC(=N)N)NC(=O)[C@@H]1CCCN1C(=O)[C@H](CCCNC(=N)N)NC(=O)[C@@H]1CCCN1C(=O)[C@H](CC(C)C)NC(=O)[C@H](Cc1ccc(O)cc1)NC(=O)[C@@H]1CCCN1C(=O)[C@@H]1CCCN1C(=O)[C@H](CCCCN)NC(=O)[C@H](CC(=O)O)NC(=O)[C@@H](NC(=O)[C@H](CCCNC(=N)N)NC(=O)[C@@H]1CCCN1C(=O)[C@@H](NC(=O)[C@@H](N)CC(C)C)C(C)C)C(C)C)C(=O)N[C@@H](Cc1ccc(O)cc1)C(=O)N[C@@H](CC(N)=O)C(=O)N[C@H](CCCNC(=N)N)C(N)=O)
fragment found [1]: Onc112
fragment found [2]: LVPR-Onc112(4–23); RVDKPPYLPRPRPPRrIYNr-NH2, minor and 5–23 [Onc112]; VDKPPYLPRPRPPRrIYNr-NH2
fragment found [3]: LVPR-Onc112(4–23); RVDKPPYLPRPRPPRrIYNr-NH2, minor and 5–23 [Onc112]; VDKPPYLPRPRPPRrIYNr-NH2
cleaved bond (human α-thrombin [17]): C-terminal to Arg4 in LVPR-Onc112
fragment found [4]: LVPR-Onc112(4–23); RVDKPPYLPRPRPPRrIYNr-NH2, minor and 5–23 [Onc112]; VDKPPYLPRPRPPRrIYNr-NH2
fragment found [5]: LVPR-Onc112(4–23); RVDKPPYLPRPRPPRrIYNr-NH2, minor and 5–23 [Onc112]; VDKPPYLPRPRPPRrIYNr-NH2
fragment found [6]: LVPR-Onc112(4–23); RVDKPPYLPRPRPPRrIYNr-NH2, minor and 5–23 [Onc112]; VDKPPYLPRPRPPRrIYNr-NH2
fragment found [7]: LVPR-Onc112(4–23); RVDKPPYLPRPRPPRrIYNr-NH2 and 5–23 [Onc112]; VDKPPYLPRPRPPRrIYNr-NH2

Onc112 released relative to initial prodrug ([8]; 1 h): 40 ± 4%
Onc112 released relative to initial prodrug ([9]; commercial serum, 1 h): 13 ± 2%
prodrug expected to be present in full serum ([9]; extrapolated from 25% serum data assuming three-fold faster degradation in full serum): 5%
Onc112 released relative to initial prodrug ([10]; 1 h): < 3%
Onc112 released relative to initial prodrug ([11]; blood, 1 h): < 3%
Overall stability [12]: Low
Sequential stability [12]: Blood = Plasma = Serum
Onc112 released relative to initial prodrug ([13]; 1 h): < 3%
Onc112 released relative to initial prodrug ([14]; 1 h): 35 ± 4%
Compound: CC[C@H](C)[C@H](NC(=O)[C@@H](CCCNC(=N)N)NC(=O)[C@H](CCCNC(=N)N)NC(=O)[C@@H]1CCCN1C(=O)[C@@H]1CCCN1C(=O)[C@H](CCCNC(=N)N)NC(=O)[C@@H]1CCCN1C(=O)[C@H](CCCNC(=N)N)NC(=O)[C@@H]1CCCN1C(=O)[C@H](CC(C)C)NC(=O)[C@H](Cc1ccc(O)cc1)NC(=O)[C@@H]1CCCN1C(=O)[C@@H]1CCCN1C(=O)[C@H](CCCCN)NC(=O)[C@H](CC(=O)O)NC(=O)[C@@H](NC(=O)[C@H](CCCNC(=N)N)NC(=O)[C@H](Cc1ccc(O)cc1)NC(=O)[C@H](C)NC(=O)[C@H](C)N)C(C)C)C(=O)N[C@@H](Cc1ccc(O)cc1)C(=O)N[C@@H](CC(N)=O)C(=O)N[C@H](CCCNC(=N)N)C(N)=O [AAYR-Onc112, AAYRVDKPPYLPRPRPPRrIYNr-NH2] (H-AAYRVDKPPYLPRPRPPR[dR]IYN[dR]-NH2)
Onc112 released from linker peptide [18]: 85%

Source: PMC5456363 (PLoS ONE, 2017)
